The values below come from ChEMBL document CHEMBL1201862, “PubChem BioAssay data set” (2004).

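Interpolation was linear, between the two tested concentrations surrounding the appropriate level; five concentrations were tested over 48 hours in 96-well plates. GI50 marks 50% less growth.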 The source made the active and inactive calls. No stated cut-off is given here; in the data, active = GI50 up to about 1.1 µM and inactive = higher.

What all share (assay): inhibition of tumour cell growth, NCI panel, 48 h
In test [1] the test system is UO-31.
For test [2], the system named is CAKI-1.
Test [3] concerns OVCAR-3.
Test [4] relates to SF-295.
For test [5], the system named is SNB-75.
In test [6] the test system is RXF 393.
Test [7] relates to U-251.
Test [8] deals with DU-145.
The subject of test [9] is NCI-H226.
Test [10] deals with EKVX.
Test [11] deals with SN12C.
Test [12] relates to NCI-H522.
The test system of test [13] is MDA-MB-435.
Test [14] concerns HCT-116.
For test [15], the system named is SR.
Test [16] relates to HCC 2998.
The subject of test [17] is OVCAR-5.
Test [18] relates to SK-MEL-2.
Test [19] concerns Malme-3M.
Test [20] relates to Hs-578T.

With `Cc1cc(C#N)c(Nc2ccccc2[N+](=O)[O-])s1`, the GI50 in [1] is 39.7 µM (inactive); in [2], 77.8 µM (inactive); in test [3], 21 µM (inactive); in [4], 24.8 µM (inactive); in test [5], 15.4 µM (inactive); in test [6], 3.96 µM (inactive). Further, the GI50 was 20.3 µM (inactive) in test [7]; 17.7 µM (inactive) in [8]; 51.1 µM (inactive) in test [9]; 22.3 µM (inactive) in test [10]; 19.2 µM (inactive) in test [11]; 19.8 µM (inactive) in test [12]. Also, the GI50 in test [13] is 18.8 µM (inactive); in test [14] it was 23.8 µM (inactive); in [15], 40.2 µM (inactive); in test [16] it was 40.8 µM (inactive); in [17] it was 14.2 µM (inactive).
For `CCCCCC(O)(CCCCC)CCCCCCCCC1=C(O)C(=O)c2ccc(=O)[nH]c2C1=O`, the GI50 in test [1] is 13.3 µM (inactive); in test [2] it was 11.2 µM (inactive); in test [3], 4.23 µM (inactive); in test [4] it was 4.37 µM (inactive); in [5] it was 17.5 µM (inactive); in test [6] it was 9.38 µM (inactive). The GI50 was 4.72 µM (inactive) in [7]; 8.36 µM (inactive) in test [9]; 13.4 µM (inactive) in [10]; 3.06 µM (inactive) in test [18]; 3.75 µM (inactive) in [19]; 7.64 µM (inactive) in test [11]. Moreover, the GI50 in test [12] is 4.78 µM (inactive); in [14], 4.34 µM (inactive); in [15], 27.3 µM (inactive); in test [16], 14.5 µM (inactive); in test [17], 20.3 µM (inactive).
With `O=c1oc2c(O)c(O)cc3c(=O)oc4c(O)c(O)cc1c4c23` [ELLAGIC ACID], the GI50 is 39.7 µM (inactive) in [1]; < 0.01 µM (active) in [2]; 29.9 µM (inactive) in test [3]; > 10 µM (inactive) in test [4]; 32.4 µM (inactive) in [5]; > 10 µM (inactive) in test [6]. Besides, the GI50 in [7] was 27.9 µM (inactive); in test [9], 23.6 µM (inactive); in test [10], 57.4 µM (inactive); in test [18] it was 78.2 µM (inactive); in [19], > 10 µM (inactive); in test [11] it was 38.1 µM (inactive). The GI50 in [12] is 24.1 µM (inactive); in [14], 92 µM (inactive); in [15], 71.1 µM (inactive); in test [16] it was > 10 µM (inactive); in [17], > 10 µM (inactive).
For the compound `COc1ccc(-c2cc(O)c3ccc(F)cc3n2)cc1`, the GI50 in test [1], in test [3], in [4], in test [5], in test [6] and in [9] was > 100 µM (inactive) in each case. For the same compound, the GI50 in test [10], in [19], in test [11], in test [12], in [14] and in [15] was > 100 µM (inactive) throughout. Moreover, the GI50 in [16] and in test [17] was > 100 µM (inactive) each time.
On to `C=C(C)C1Cc2c(cc(O)c3c(=O)c4c(oc23)C(O)Oc2cc(OC)c(OC)cc2-4)O1` (stereo not given), for which the GI50 in test [1], in test [2], in test [3], in test [4], in test [6] and in [7] was > 10 µM (inactive) in each case. The GI50 in test [8] was > 10 µM (inactive); in test [9], 6.97 µM (inactive); in test [10] it was > 10 µM (inactive); in test [19], > 10 µM (inactive); in test [11], > 10 µM (inactive); in test [13], > 10 µM (inactive). The GI50 in [14], in test [15], in [16] and in test [17] was > 10 µM (inactive) in each case.
As to `COc1cc(/C=C\c2ccc(Cl)cc2)cc(OC)c1OC`, the GI50 in [1] is 0.593 µM (active); in test [2], 0.384 µM (active); in test [3] it was 0.102 µM (active); in test [4] it was 0.0331 µM (active); in [5] it was 0.188 µM (active); in test [6], 0.2 µM (active). For the same compound, the GI50 in test [7] is 0.231 µM (active); in test [9], 0.24 µM (active); in test [10], 0.439 µM (active); in test [18], 0.245 µM (active); in [19], 0.184 µM (active); in test [11], 0.508 µM (active). The GI50 is 0.111 µM (active) in test [12]; 0.0652 µM (active) in test [14]; 0.0652 µM (active) in [15]; 1.73 µM (inactive) in [16]; 26.3 µM (inactive) in test [17].
For `COC(=O)C1=COC(OC2OC(CO)C(O)C(O)C2O)C2C3CN4CCc5c([nH]c6ccccc56)C4(CC12)O3` (stereo not given), the GI50 in test [1] was > 100 µM (inactive); in test [2], < 0.01 µM (active); in test [3] it was > 100 µM (inactive); in test [4], > 100 µM (inactive); in [5], > 100 µM (inactive); in test [6], > 100 µM (inactive). Moreover, the GI50 in test [7], in test [8], in [9], in test [10], in [18] and in test [19] was > 100 µM (inactive) throughout. Besides, the GI50 in [11], in test [14], in test [15] and in test [17] was > 100 µM (inactive) in each case.
For the compound `Cc1cc2c(cc1C)[n+]([O-])c(NCCCN(C)C)c(C#N)[n+]2[O-]`, the GI50 in [1] was > 100 µM (inactive); in [2] it was 72.1 µM (inactive); in test [3] it was 76.4 µM (inactive); in [4] it was 42 µM (inactive); in test [5], 85.7 µM (inactive); in [6], > 100 µM (inactive). Moreover, the GI50 in test [7] is > 100 µM (inactive); in test [9], 67 µM (inactive); in test [10], 68.5 µM (inactive); in test [18], > 100 µM (inactive); in test [19], 95.1 µM (inactive); in test [11] it was 82.4 µM (inactive). In addition, the GI50 is 57.4 µM (inactive) in test [12]; > 100 µM (inactive) in test [13]; 73.3 µM (inactive) in test [14]; 13.2 µM (inactive) in test [15]; 88.3 µM (inactive) in test [16]; > 100 µM (inactive) in test [20]. Also, the GI50 in test [17] is > 100 µM (inactive).
As to `COC1=CC(=O)c2c(CCNC(=O)OCc3ccccc3)n[nH]c2C1=O`, the GI50 was 14.6 µM (inactive) in [1]; 18.1 µM (inactive) in test [3]; 20.6 µM (inactive) in test [4]; 13.2 µM (inactive) in test [7]; 17.8 µM (inactive) in test [10]; 11 µM (inactive) in test [18]. In addition, the GI50 in test [19] is 1.76 µM (inactive); in test [11], 13.8 µM (inactive); in test [12], 7.78 µM (inactive); in test [13], 2.16 µM (inactive); in test [14], 12.4 µM (inactive); in test [15], 19.1 µM (inactive). Further, the GI50 was 19 µM (inactive) in test [16], 24.2 µM (inactive) in [20] and 18.1 µM (inactive) in [17].
Take `CCCCCCc1ccc(CCCCCCCC(=O)O)o1`: the GI50 in test [1] was > 100 µM (inactive); in test [2], > 100 µM (inactive); in [3], 34.2 µM (inactive); in test [4] it was 55.5 µM (inactive); in test [5] it was 55.7 µM (inactive); in test [8] it was > 100 µM (inactive). Further, the GI50 in test [9] is 94 µM (inactive); in [10] it was > 100 µM (inactive); in [18], > 100 µM (inactive); in test [11], > 100 µM (inactive); in [13] it was > 100 µM (inactive); in [14], 68.5 µM (inactive). For the same compound, the results for the GI50 in test [15], in test [16] and in [17] were 44 µM (inactive), > 100 µM (inactive) and > 100 µM (inactive), respectively.
With `CCCCCCCCCCCCCCCCCCCCCC(=O)Nc1ccn(C2OC(CO)C(O)C2O)c(=O)n1` (stereo not given), the GI50 in [1] is 32.1 µM (inactive); in test [2], > 31.6 µM (inactive); in [3], > 100 µM (inactive); in test [4] it was > 84.3 µM (inactive); in test [5], > 83.6 µM (inactive); in [6], > 100 µM (inactive). In addition, the GI50 in test [7] was > 92.9 µM (inactive); in test [9], > 100 µM (inactive); in test [10], > 100 µM (inactive); in [18], > 100 µM (inactive); in test [19], > 42.4 µM (inactive); in [11] it was > 60.8 µM (inactive). The GI50 in test [12] is > 100 µM (inactive); in [14], 6.89 µM (inactive); in test [15], 1.67 µM (inactive); in test [16] it was > 100 µM (inactive); in test [17], > 61 µM (inactive).
Regarding `CN(C)/C=[N+]1/[C@@H](Cc2ccccc2)C(=O)O[B-]1(F)c1ccccc1` (stereo not given in full), the GI50 in [1], in [3], in [4], in [5], in test [7] and in [8] was > 100 µM (inactive) in each case. Further, the GI50 in test [9], in test [10], in [19], in [11], in test [13] and in test [14] was > 100 µM (inactive) each time. The GI50 in test [15], in test [16] and in test [17] was > 100 µM (inactive) in each case.
